Test results as given in patent publication US10813944B2, “Cyclodextrins as procoagulants” (STICHTING SANQUIN BLOEDVOORZIENING, priority 2016, dated 2020).

Legend:
[1] = tested on: thrombin generation in pooled normal plasma spiked with anticoagulants; test: Thrombin generation assay in pooled normal plasma spiked with anticoagulants; format: biochemical, human; conditions: for effect on the anticoagulant effect of apixaban: apixaban 60 ng/ml; for effect on the anticoagulant effect of apixaban / effect on the anticoagulant effect of dabigatran / effect on the anticoagulant effect of edoxaban / effect on the anticoagulant effect of rivaroxaban: cyclodextrin 100 μM, 1 pM TF; for effect on the anticoagulant effect of dabigatran: dabigatran 100 ng/ml; for effect on the anticoagulant effect of edoxaban: edoxaban 60 ng/ml; for effect on the anticoagulant effect of rivaroxaban: rivaroxaban 100 ng/ml
Description: (§1) FIGS. 3-8, 12, 14-19 and 22-27: Pooled normal plasma was spiked with cyclodextrins (100 μM, unless otherwise indicated) and anticoagulants. The concentrations of the anticoagulants were 100 ng/ml for dabigatran (A), 100 ng/ml for rivaroxaban (B), 60 ng/ml for apixaban (C), 60 ng/ml for edoxaban (D). The plasmas were subjected to thrombin generation analysis as described in the Materials and Methods section with 1 pM tissue factor (TF) as initiator of coagulation.
FIG. 9: Pooled normal plasma was spiked with OKL-1111 (100 μM, unless otherwise indicated (A)) and anticoagulants (B-E). The concentrations of the anticoagulants were 100 ng/ml for dabigatran (B), 100 ng/ml for rivaroxaban (C), 60 ng/ml for apixaban (D), 60 ng/ml for edoxaban (E). The plasmas were subjected to thrombin generation analysis as described in the Materials and Methods section with 1 pM tissue factor (TF) as initiator of coagulation.
FIG. 10: Pooled normal plasma was spiked with OKL-1111 (100 μM) and anticoagulants (A-F). The concentrations of the anticoagulants were 2 μg/ml for fondaparinux (A), 0.4 U/ml for nadroparin (B), 0.1 U/ml for tinzaparin (C), 0.03 U/ml for unfractionated heparin (UFH) (D), 0.5 U/ml for hirudin (E) and 10 μg/ml for bivalirudin (F). The plasmas were subjected to thrombin generation analysis as described in the Materials and Methods section with 1 pM tissue factor (TF) as initiator of coagulation.
(§2) The Calibrated Automated Thrombogram® assays the generation of thrombin in clotting plasma using a microtiter plate reading fluorometer (Fluoroskan Ascent, ThermoLab systems, Helsinki, Finland) and Thrombinoscope® software (Thrombinoscope BV, Maastricht, The Netherlands). The assay was carried out as described by Hemker et al. (Pathofysiol. IIaemost. Thromb. 2003, 33, 4-15), and the Thrombinoscope® manual. Coagulation was triggered by recalcification in the presence of 1 or 5 pM recombinant human tissue factor (Innovin®, Siemens, Marburg, Germany), 4 μM phospholipids, and 417 μM fluorogenic substrate Z-Gly-Gly-Arg-AMC (Bachem, Bubendorf, Switzerland). Fluorescence was monitored using the Fluoroskan Ascent fluorometer (ThermoLabsystems, Helsinki, Finland), and the lag time, peak thrombin, velocity index and area under the curve (ETP) were calculated using the Thrombinoscope® software (Thrombinoscope BV).

[2] = tested on: thrombin generation in pooled normal plasma; test: Calibrated Automated Thrombogram thrombin generation assay in pooled normal plasma; format: biochemical, human; conditions: for procoagulant effect in normal plasma: no anticoagulant, cyclodextrin 100 μM unless otherwise indicated, 1 pM TF; for procoagulant activity (overview): pooled normal plasma with and without the addition of anticoagulants; for lag time / peak thrombin: normal plasma, versus absence of cyclodextrin
Description: as §1, §2
Thrombin generation analyses were performed in pooled normal plasma with and without the addition of anticoagulants.

Compound	procoagulant effect in plasma containing anticoagulants (not specified / NOACs) [1]	procoagulant effect in normal plasma [2]	procoagulant activity (overview) [2]	effect on the anticoagulant effect of apixaban [1]	effect on the anticoagulant effect of dabigatran [1]	effect on the anticoagulant effect of edoxaban [1]	effect on the anticoagulant effect of rivaroxaban [1]	lag time [2]	peak thrombin [2]
O=C(O)CCSCC1OC2OC3C(CO)OC(OC4C(CO)OC(OC5C(CO)OC(OC6C(CO)OC(OC7C(CO)OC(OC8C(CO)OC(OC1C(O)C2O)C(O)C8O)C(O)C7O)C(O)C6O)C(O)C5O)C(O)C4O)C(O)C3O (centres unmarked) [OKL-1100, reference compound]	did not show procoagulant activity	did not show procoagulant activity	No						
O=C(O)CCSCC1OC2OC3C(CSCCC(=O)O)OC(OC4C(CSCCC(=O)O)OC(OC5C(CSCCC(=O)O)OC(OC6C(CSCCC(=O)O)OC(OC7C(CSCCC(=O)O)OC(OC8C(CSCCC(=O)O)OC(OC1C(O)C2O)C(O)C8O)C(O)C7O)C(O)C6O)C(O)C5O)C(O)C4O)C(O)C3O (centres unmarked) [OKL-1101, reference compound]	did not show procoagulant activity	did not show procoagulant activity	No						
O=C(O)CCSCC1OC2OC3C(CO)OC(OC4C(CO)OC(OC5C(CO)OC(OC6C(CO)OC(OC7C(CO)OC(OC8C(CO)OC(OC9C(CO)OC(OC1C(O)C2O)C(O)C9O)C(O)C8O)C(O)C7O)C(O)C6O)C(O)C5O)C(O)C4O)C(O)C3O (centres unmarked) [OKL-1102, reference compound]	did not show procoagulant activity	did not show procoagulant activity	No						
O=C(O)CCSCC1OC2OC3C(CSCCC(=O)O)OC(OC4C(CSCCC(=O)O)OC(OC5C(CSCCC(=O)O)OC(OC6C(CSCCC(=O)O)OC(OC7C(CSCCC(=O)O)OC(OC8C(CSCCC(=O)O)OC(OC9C(CSCCC(=O)O)OC(OC1C(O)C2O)C(O)C9O)C(O)C8O)C(O)C7O)C(O)C6O)C(O)C5O)C(O)C4O)C(O)C3O (centres unmarked) [OKL-1103, reference compound]	did not show procoagulant activity	did not show procoagulant activity	No						
O=C(O)CCCSCC1OC2OC3C(CSCCCC(=O)O)OC(OC4C(CSCCCC(=O)O)OC(OC5C(CSCCCC(=O)O)OC(OC6C(CSCCCC(=O)O)OC(OC7C(CSCCCC(=O)O)OC(OC8C(CSCCCC(=O)O)OC(OC1C(O)C2O)C(O)C8O)C(O)C7O)C(O)C6O)C(O)C5O)C(O)C4O)C(O)C3O (centres unmarked) [OKL-1105]		significant procoagulant effect		procoagulant effects were observed	procoagulant effects were observed	procoagulant effects were observed	procoagulant effects were observed		
O=C(O)CCCSCC1OC2OC3C(CO)OC(OC4C(CO)OC(OC5C(CO)OC(OC6C(CO)OC(OC7C(CO)OC(OC8C(CO)OC(OC9C(CO)OC(OC1C(O)C2O)C(O)C9O)C(O)C8O)C(O)C7O)C(O)C6O)C(O)C5O)C(O)C4O)C(O)C3O (centres unmarked) [OKL-1106]		procoagulant effect		less pronounced	significantly antagonized	less pronounced	significantly antagonized		
O=C(O)CCCSCC1OC2OC3C(CSCCCC(=O)O)OC(OC4C(CSCCCC(=O)O)OC(OC5C(CSCCCC(=O)O)OC(OC6C(CSCCCC(=O)O)OC(OC7C(CSCCCC(=O)O)OC(OC8C(CSCCCC(=O)O)OC(OC9C(CSCCCC(=O)O)OC(OC1C(O)C2O)C(O)C9O)C(O)C8O)C(O)C7O)C(O)C6O)C(O)C5O)C(O)C4O)C(O)C3O (centres unmarked) [OKL-1107]		strong procoagulant effects		completely restored or even higher than in the non-anticoagulated plasma	completely restored or even higher than in the non-anticoagulated plasma	completely restored or even higher than in the non-anticoagulated plasma	completely restored or even higher than in the non-anticoagulated plasma	considerably shorter	largely increased
O=C(O)CCCCCSCC1OC2OC3C(CO)OC(OC4C(CO)OC(OC5C(CO)OC(OC6C(CO)OC(OC7C(CO)OC(OC8C(CO)OC(OC1C(O)C2O)C(O)C8O)C(O)C7O)C(O)C6O)C(O)C5O)C(O)C4O)C(O)C3O (centres unmarked) [OKL-1108]		substantial procoagulant effect		antagonized	antagonized	antagonized	antagonized		
O=C(O)CCCCCSCC1OC2OC3C(CSCCCCCC(=O)O)OC(OC4C(CSCCCCCC(=O)O)OC(OC5C(CSCCCCCC(=O)O)OC(OC6C(CSCCCCCC(=O)O)OC(OC7C(CSCCCCCC(=O)O)OC(OC8C(CSCCCCCC(=O)O)OC(OC1C(O)C2O)C(O)C8O)C(O)C7O)C(O)C6O)C(O)C5O)C(O)C4O)C(O)C3O (centres unmarked) [OKL-1109]		small effects		marginal or no effects	marginal or no effects	marginal or no effects	marginal or no effects		
O=C(O)CCCCCSCC1OC2OC3C(CO)OC(OC4C(CO)OC(OC5C(CO)OC(OC6C(CO)OC(OC7C(CO)OC(OC8C(CO)OC(OC9C(CO)OC(OC1C(O)C2O)C(O)C9O)C(O)C8O)C(O)C7O)C(O)C6O)C(O)C5O)C(O)C4O)C(O)C3O (centres unmarked) [OKL-1110]		very potent procoagulant effect		fully counteracted	strongly antagonized	fully counteracted	fully counteracted		
OCCCSCC1OC2OC3C(CSCCCO)OC(OC4C(CSCCCO)OC(OC5C(CSCCCO)OC(OC6C(CSCCCO)OC(OC7C(CSCCCO)OC(OC8C(CSCCCO)OC(OC9C(CSCCCO)OC(OC1C(O)C2O)C(O)C9O)C(O)C8O)C(O)C7O)C(O)C6O)C(O)C5O)C(O)C4O)C(O)C3O (centres unmarked) [OKL-1146]		very strong procoagulant effects		restoration of thrombin generation to levels far above that of non-anticoagulated plasma	restoration of thrombin generation to levels far above that of non-anticoagulated plasma	restoration of thrombin generation to levels far above that of non-anticoagulated plasma	restoration of thrombin generation to levels far above that of non-anticoagulated plasma	considerably shorter	largely increased
O=C(O)CCSCC1OC2OC3C(CSCCC(=O)O)OC(OC4C(CSCCC(=O)O)OC(OC5C(CSCCC(=O)O)OC(OC6C(CSCCC(=O)O)OC(OC7C(CSCCC(=O)O)OC(OC8C(CSCCC(=O)O)OC(OC9C(CSCCC(=O)O)OC(OC1C(O)C2O)C(O)C9O)C(O)C8O)C(O)C7O)C(O)C6O)C(O)C5O)C(O)C4O)C(O)C3O (centres unmarked) [OKL-1170, reference compound]	did not show procoagulant activity	did not show procoagulant activity	No						
O=C(O)CCCCSCC1OC2OC3C(CSCCCCC(=O)O)OC(OC4C(CSCCCCC(=O)O)OC(OC5C(CSCCCCC(=O)O)OC(OC6C(CSCCCCC(=O)O)OC(OC7C(CSCCCCC(=O)O)OC(OC8C(CSCCCCC(=O)O)OC(OC1C(O)C2O)C(O)C8O)C(O)C7O)C(O)C6O)C(O)C5O)C(O)C4O)C(O)C3O (centres unmarked) [OKL-1178]		procoagulant activity							
O=C(O)CCCCCCSCC1OC2OC3C(CSCCCCCCC(=O)O)OC(OC4C(CSCCCCCCC(=O)O)OC(OC5C(CSCCCCCCC(=O)O)OC(OC6C(CSCCCCCCC(=O)O)OC(OC7C(CSCCCCCCC(=O)O)OC(OC8C(CSCCCCCCC(=O)O)OC(OC1C(O)C2O)C(O)C8O)C(O)C7O)C(O)C6O)C(O)C5O)C(O)C4O)C(O)C3O (centres unmarked) [OKL-1179]		procoagulant activity							
